Results published in patent US7271170B2, “Imidazo-pyrimidines and triazolo-pyrimidines: benzodiazepine receptor ligands” (Neurogen Corporation, priority 2003, dated 2007).

target: benzodiazepine site of the GABAA receptor; test: Ligand binding assay of Example 6 (3H-Ro15-1788 competition, purified rat cortical membranes); settings: ligand binding assay of Example 6; Table 5 Ki

Ki [nM] | SMILES
< 1000 | CCCc1c(Cn2ccnc2-c2ncccc2F)ncn2nc(C3CCCO3)nc12 (stereo not shown) [Compound 254, 7-{[2-(3-fluoropyridin-2-yl)-1H-imidazol-1-yl]methyl}-8-propyl-2-(tetrahydrofuran-2-yl)[1,2,4]triazolo[1,5-c]pyrimidine]
< 1000 | CCCc1c(Cn2ccnc2-c2ncccc2F)ncn2nc(COCC(F)(F)F)nc12 [Compound 255, 7-{[2-(3-fluoropyridin-2-yl)-1H-imidazol-1-yl]methyl}-8-propyl-2-[(2,2,2-trifluoroethoxy)methyl][1,2,4]triazolo[1,5-c]pyrimidine]
< 1000 | CCCc1c(Cn2ccnc2-c2ncccc2F)ncn2nc(Cl)nc12 [Compound 256, 2-chloro-7-{[2-(3-fluoropyridin-2-yl)-1H-imidazol-1-yl]methyl}-8-propyl[1,2,4]triazolo[1,5-c]pyrimidine]
< 1000 | CCCc1c(Cn2ccnc2-c2ncccc2F)ncn2nc(CC(F)(F)F)nc12 [Compound 257, 7-{[2-(3-fluoropyridin-2-yl)-1H-imidazol-1-yl]methyl}-8-propyl-2-(2,2,2-trifluoroethyl)[1,2,4]triazolo[1,5-c]pyrimidine]
< 1000 | CCCc1c(Cn2ccnc2-c2ncccc2F)ncn2nc(-c3nccs3)nc12 [Compound 258, 7-{[2-(3-fluoropyridin-2-yl)-1H-imidazol-1-yl]methyl}-8-propyl-2-(1,3-thiazol-2-yl)[1,2,4]triazolo[1,5-c]pyrimidine]
< 1000 | CCCc1c(Cn2ccnc2-c2ncccc2F)ncn2nc(N(CCC)CCC)nc12 [Compound 259, 7-{[2-(3-fluoropyridin-2-yl)-1H-imidazol-1-yl]methyl}-N,N,8-tripropyl[1,2,4]triazolo[1,5-c]pyrimidin-2-amine]
< 1000 | CCCc1c(Cn2ccnc2-c2cccc(C#N)n2)ncn2nc(COCC)nc12 [Compound 260, 6-(1-{[2-(ethoxymethyl)-8-propyl[1,2,4]triazolo[1,5-c]pyrimidin-7-yl]methyl}-1H-imidazol-2-yl)pyridine-2-carbonitrile]
< 1000 | CCCc1c(Cn2ccnc2-c2ncccc2F)ncn2nc(COCC)nc12 [Compound 261, 2-(ethoxymethyl)-7-{[2-(3-fluoropyridin-2-yl)-1H-imidazol-1-yl]methyl}-8-propyl[1,2,4]triazolo[1,5-c]pyrimidine]
< 1000 | CCCc1c(Cn2ccnc2-c2cccc(C#N)n2)ncn2nc(C)nc12 [Compound 262, 6-{1-[(2-methyl-8-propyl[1,2,4]triazolo[1,5-c]pyrimidin-7-yl]methyl]-1H-imidazol-2-yl}pyridine-2-carbonitrile]
< 1000 | CCCc1c(Cn2ccnc2-c2ncccc2F)ncn2nc(COC(C)C)nc12 [Compound 263, 7-{[2-(3-fluoropyridin-2-yl)-1H-imidazol-1-yl]methyl}-2-(isopropoxymethyl)-8-propyl[1,2,4]triazolo[1,5-c]pyrimidine]
< 1000 | CCCc1c(Cn2ccnc2-c2cccc(C#N)n2)ncn2nc(COC(C)C)nc12 [Compound 264, 6-(1-{[2-(isopropoxymethyl)-8-propyl[1,2,4]triazolo[1,5-c]pyrimidin-7-yl]methyl}-1H-imidazol-2-yl)pyridine-2-carbonitrile]
< 1000 | CCCc1c(Cn2ccnc2-c2ncccc2F)ncn2nc(COC3CCCC3)nc12 [Compound 265, 2-[(cyclopentyloxy)methyl]-7-{[2-(3-fluoropyridin-2-yl)-1H-imidazol-1-yl]methyl}-8-propyl[1,2,4]triazolo[1,5-c]pyrimidine]

same assay, conditions: radioligand; previously determined, used in Cheng-Prusoff equation; read-out: Kd, binding dissociation constant of 3H-Ro15-1788

SMILES | Kd [nM]
CCOC(=O)c1ncn2c1CN(C)C(=O)c1cc(F)ccc1-2 [^3H-Ro15-1788, reference compound] | 1
